In the test the target is T1, Recombinant human TPH1 (MBP tagged) (Homo sapiens, UniProt P17752).
T1 construct: cloning full length human TPH1 cDNA in to a bacterial pMAL-c5E expression vector; made in house; host or cells: E. coli BL21 (DE3)
T1 sequence (P17752 1-444): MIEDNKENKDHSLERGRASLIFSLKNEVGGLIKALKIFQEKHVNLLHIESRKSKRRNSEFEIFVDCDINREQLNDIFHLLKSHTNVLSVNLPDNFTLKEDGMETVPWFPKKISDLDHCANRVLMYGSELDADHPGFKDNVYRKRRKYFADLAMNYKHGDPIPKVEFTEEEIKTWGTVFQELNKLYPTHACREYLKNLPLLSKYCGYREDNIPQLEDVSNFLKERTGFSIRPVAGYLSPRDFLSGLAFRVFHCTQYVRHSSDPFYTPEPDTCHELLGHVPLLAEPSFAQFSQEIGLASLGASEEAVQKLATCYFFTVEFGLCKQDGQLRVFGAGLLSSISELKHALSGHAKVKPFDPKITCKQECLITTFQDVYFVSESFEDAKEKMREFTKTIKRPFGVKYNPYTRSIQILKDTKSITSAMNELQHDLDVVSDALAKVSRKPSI
Briefly: TPH1 in vitro inhibition assay (kinetic fluorescence). Format: biochemical. Summed up: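 Final mix: 15 nM MBP-TPH1, 30 μM Trp, 36 μM 6-methyltetrahydropterin, 25 μM ferrous ammonium sulfate, 50 mM MES pH 7.1, 1% DMSO, room temperature.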

Where [1] appears, read: read-out: TPH1 Range (TPH1 inhibition IC50).
Where [2] appears, read: TPH1 Range (TPH1 inhibition IC50).

Read-outs that look alike come from different tables or passages of the source.

Take `COc1ccc(-c2ccc([C@@H](Oc3cc(N4CCC5(CC4)CN[C@H](C(=O)O)C5)nc(C)n3)C(F)(F)F)c(-n3ccc(C)n3)c2)c(OC)c1` [Example 29h, (S)-8-(6-((R)-1-(2′,4′-dimethoxy-3-(3-methyl-1H-pyrazol-1-yl)-[1,1′-biphenyl]-4-yl)-2,2,2-trifluoroethoxy)-2-methylpyrimidin-4-yl)-2,8-diazaspiro[4.5]decane-3-carboxylic acid]: under setting [1], the IC50 is less than 50 nM.

For `CCOC(=O)c1ccc(-c2ccc([C@@H](Oc3cc(N4CCC5(CC4)CN[C@H](C(=O)O)C5)nc(C)n3)C(F)(F)F)c(-n3ccc(C)n3)c2)cc1` [Example 29i, (S)-8-(6-((R)-1-(4′-(ethoxycarbonyl)-3-(3-methyl-1H-pyrazol-1-yl)-[1,1′-biphenyl]-4-yl)-2,2,2-trifluoroethoxy)-2-methylpyrimidin-4-yl)-2,8-diazaspiro[4.5]decane-3-carboxylic acid], under setting [1], the IC50 was less than 50 nM.

`Cc1ccn(-c2cc(-c3ccc(C(=O)N(C)C)cc3)ccc2[C@@H](Oc2cc(N3CCC4(CC3)CN[C@H](C(=O)O)C4)nc(C)n2)C(F)(F)F)n1` [Example 29j, (S)-8-(6-((R)-1-(4′-(dimethylcarbamoyl)-3-(3-methyl-1H-pyrazol-1-yl)-[1,1′-biphenyl]-4-yl)-2,2,2-trifluoroethoxy)-2-methylpyrimidin-4-yl)-2,8-diazaspiro[4.5]decane-3-carboxylic acid]: the IC50 under setting [1] is less than 50 nM.

As to `COc1ncccc1-c1ccc([C@@H](Oc2cc(N3CCC4(CC3)CN[C@H](C(=O)O)C4)nc(C)n2)C(F)(F)F)c(-n2ccc(C)n2)c1` [Example 29k, (S)-8-(2-methyl-6-((R)-2,2,2-trifluoro-1-(4-(2-methoxypyridin-3-yl)-2-(3-methyl-1H-pyrazol-1-yl)phenyl)ethoxy)pyrimidin-4-yl)-2,8-diazaspiro[4.5]decane-3-carboxylic acid], the IC50 under setting [1] lay in the range of 50 to 300 nM.

As to `COc1ccc(-c2ccc([C@@H](Oc3cc(N4CCC5(CC4)CN[C@H](C(=O)O)C5)nc(C)n3)C(F)(F)F)c(-n3ccc(C)n3)c2)cc1F` [Example 29l, (S)-8-(2-methyl-6-((R)-2,2,2-trifluoro-1-(3′-fluoro-4′-methoxy-3-(3-methyl-1H-pyrazol-1-yl)-[1,1′-biphenyl]-4-yl)ethoxy)pyrimidin-4-yl)-2,8-diazaspiro[4.5]decane-3-carboxylic acid], under setting [1], the IC50 was less than 50 nM.

Turning to `Cc1ccn(-c2cc(-c3cccc(C(=O)N(C)C)c3)ccc2[C@@H](Oc2cc(N3CCC4(CC3)CN[C@H](C(=O)O)C4)nc(C)n2)C(F)(F)F)n1` [Example 29m, (S)-8-(6-((R)-1-(3′-(dimethylcarbamoyl)-3-(3-methyl-1H-pyrazol-1-yl)-[1,1′-biphenyl]-4-yl)-2,2,2-trifluoroethoxy)-2-methylpyrimidin-4-yl)-2,8-diazaspiro[4.5]decane-3-carboxylic acid], the IC50 under setting [1] was in the range of 50 to 300 nM.

In the case of `Cc1cc(C)c(-c2ccc([C@@H](Oc3cc(N4CCC5(CC4)CN[C@H](C(=O)O)C5)nc(C)n3)C(F)(F)F)c(-n3ccc(C)n3)c2)c(C)c1` [Example 29n, (S)-8-(2-methyl-6-((R)-2,2,2-trifluoro-1-(2′,4′,6′-trimethyl-3-(3-methyl-1H-pyrazol-1-yl)-[1,1′-biphenyl]-4-yl)ethoxy)pyrimidin-4-yl)-2,8-diazaspiro[4.5]decane-3-carboxylic acid], the IC50 under setting [1] was 50 to 300 nM.

For the molecule `Cc1ccn(-c2cc(-c3ccc(OC(C)C)cc3)ccc2[C@@H](Oc2cc(N3CCC4(CC3)CN[C@H](C(=O)O)C4)nc(C)n2)C(F)(F)F)n1` [Example 29o, (S)-8-(2-methyl-6-((R)-2,2,2-trifluoro-1-(4′-isopropoxy-3-(3-methyl-1H-pyrazol-1-yl)-[1,1′-biphenyl]-4-yl)ethoxy)pyrimidin-4-yl)-2,8-diazaspiro[4.5]decane-3-carboxylic acid], the IC50 under setting [1] was less than 50 nM.

Regarding `COc1ccccc1-c1ccc([C@@H](Oc2cc(N3CCC4(CC3)CN[C@H](C(=O)O)C4)nc(C)n2)C(F)(F)F)c(-n2ccc(C)n2)c1` [Example 29p, (S)-8-(2-methyl-6-((R)-2,2,2-trifluoro-1-(2′-methoxy-3-(3-methyl-1H-pyrazol-1-yl)-[1,1′-biphenyl]-4-yl)ethoxy)pyrimidin-4-yl)-2,8-diazaspiro[4.5]decane-3-carboxylic acid], under setting [1], the IC50 was less than 50 nM.

As for `COC(=O)c1ccc(-c2ccc([C@@H](Oc3cc(N4CCC5(CC4)CN[C@H](C(=O)O)C5)nc(C)n3)C(F)(F)F)c(-n3ccc(C)n3)c2)cc1OC` [Example 29q, (S)-8-(2-methyl-6-((R)-2,2,2-trifluoro-1-(3′-methoxy-4′-(methoxycarbonyl)-3-(3-methyl-1H-pyrazol-1-yl)-[1,1′-biphenyl]-4-yl)ethoxy)pyrimidin-4-yl)-2,8-diazaspiro[4.5]decane-3-carboxylic acid], the IC50 under setting [1] was less than 50 nM.

As for `Cc1ccn(-c2cc(-c3ccc(C(C)(C)C)cc3)ccc2[C@@H](Oc2cc(N3CCC4(CC3)CN[C@H](C(=O)O)C4)nc(C)n2)C(F)(F)F)n1` [Example 29r, (S)-8-(6-((R)-1-(4′-(tert-butyl)-3-(3-methyl-1H-pyrazol-1-yl)-[1,1′-biphenyl]-4-yl)-2,2,2-trifluoroethoxy)-2-methylpyrimidin-4-yl)-2,8-diazaspiro[4.5]decane-3-carboxylic acid], under setting [1], the IC50 was less than 50 nM.

As to `CCOc1ccc(-c2ccc([C@@H](Oc3cc(N4CCC5(CC4)CN[C@H](C(=O)O)C5)nc(C)n3)C(F)(F)F)c(-n3ccc(C)n3)c2)cc1` [Example 29s, (S)-8-(6-((R)-1-(4′-ethoxy-3-(3-methyl-1H-pyrazol-1-yl)-[1,1′-biphenyl]-4-yl)-2,2,2-trifluoroethoxy)-2-methylpyrimidin-4-yl)-2,8-diazaspiro[4.5]decane-3-carboxylic acid], under setting [1], the IC50 was less than 50 nM.

`Cc1ccn(-c2cc(-c3ccc(OC(F)(F)F)cc3)ccc2[C@@H](Oc2cc(N3CCC4(CC3)CN[C@H](C(=O)O)C4)nc(C)n2)C(F)(F)F)n1` [Example 29t, (S)-8-(2-methyl-6-((R)-2,2,2-trifluoro-1-(3-(3-methyl-1H-pyrazol-1-yl)-4′-(trifluoromethoxy)-[1,1′-biphenyl]-4-yl)ethoxy)pyrimidin-4-yl)-2,8-diazaspiro[4.5]decane-3-carboxylic acid]: under setting [1], the IC50 lay within 50 to 300 nM.

`COC(=O)c1cccc(-c2ccc([C@@H](Oc3cc(N4CCC5(CC4)CN[C@H](C(=O)O)C5)nc(C)n3)C(F)(F)F)c(-n3ccc(C)n3)c2)c1` [Example 29u, (S)-8-(2-methyl-6-((R)-2,2,2-trifluoro-1-(3′-(methoxycarbonyl)-3-(3-methyl-1H-pyrazol-1-yl)-[1,1′-biphenyl]-4-yl)ethoxy)pyrimidin-4-yl)-2,8-diazaspiro[4.5]decane-3-carboxylic acid]: the IC50 under setting [1] lay within 50 to 300 nM.

As for `Nc1nc(O[C@H](c2ccc(Cl)cc2N2CCCC2=O)C(F)(F)F)cc(N2CCC3(CC2)CN[C@H](C(=O)O)C3)n1` [Example 33, (S)-8-(2-amino-6-((R)-1-(4-chloro-2-(2-oxopyrrolidin-1-yl)phenyl)-2,2,2-trifluoroethoxy)pyrimidin-4-yl)-2,8-diazaspiro[4.5]decane-3-carboxylic acid], the IC50 under setting [1] lay in the range of 50 to 300 nM.

Consider `Nc1nc(O[C@H](c2ccc(Cl)cc2-c2cccc(Cl)c2)C(F)(F)F)cc(N2CCC3(CC2)CN[C@H](C(=O)O)C3)n1` [Example 34a, (S)-8-(2-amino-6-((R)-1-(3′,5-dichloro-[1,1′-biphenyl]-2-yl)-2,2,2-trifluoroethoxy)pyrimidin-4-yl)-2,8-diazaspiro[4.5]decane-3-carboxylic acid], for which the IC50 under setting [2] is less than 50 nM.

Consider `C=CC(=O)NCc1cccc(-c2cc(Cl)ccc2[C@@H](Oc2cc(N3CCC4(CC3)CN[C@H](C(=O)O)C4)nc(N)n2)C(F)(F)F)c1` [Example 34aa, (S)-8-(6-((R)-1-(3′-(acrylamidomethyl)-5-chloro-[1,1′-biphenyl]-2-yl)-2,2,2-trifluoroethoxy)-2-aminopyrimidin-4-yl)-2,8-diazaspiro[4.5]decane-3-carboxylic acid], for which the IC50 under setting [1] is less than 50 nM.

With `Nc1nc(O[C@H](c2ccc(Cl)cc2-c2cccc(C(=O)O)c2)C(F)(F)F)cc(N2CCC3(CC2)CN[C@H](C(=O)O)C3)n1` [Example 34ab, (S)-8-(2-amino-6-((R)-1-(3′-carboxy-5-chloro-[1,1′-biphenyl]-2-yl)-2,2,2-trifluoroethoxy)pyrimidin-4-yl)-2,8-diazaspiro[4.5]decane-3-carboxylic acid], the IC50 under setting [1] lay within 300 to 3000 nM.

For the molecule `NC(=O)c1cccc(-c2cc(Cl)ccc2[C@@H](Oc2cc(N3CCC4(CC3)CN[C@H](C(=O)O)C4)nc(N)n2)C(F)(F)F)c1` [Example 34ac, (S)-8-(2-amino-6-((R)-1-(3′-carbamoyl-5-chloro-[1,1′-biphenyl]-2-yl)-2,2,2-trifluoroethoxy)pyrimidin-4-yl)-2,8-diazaspiro[4.5]decane-3-carboxylic acid], the IC50 under setting [2] was less than 50 nM.

For `CS(=O)(=O)c1ccc(-c2cc(Cl)ccc2[C@@H](Oc2cc(N3CCC4(CC3)CN[C@H](C(=O)O)C4)nc(N)n2)C(F)(F)F)cc1` [Example 34ad, (S)-8-(2-amino-6-((R)-1-(5-chloro-4′-(methylsulfonyl)-[1,1′-biphenyl]-2-yl)-2,2,2-trifluoroethoxy)pyrimidin-4-yl)-2,8-diazaspiro[4.5]decane-3-carboxylic acid], under setting [2], the IC50 was in the range of 300 to 3000 nM.

The values above are taken from patent publication US11759462B2, “Spirocyclic compounds as tryptophan hydroxylase inhibitors” (priority 2013, dated 2023).
